Experimental data as given in US10202343B2, “MIF modulators” (YALE UNIVERSITY, priority 2008, dated 2019).
Read-outs that look alike come from different tables or passages of the source.

Legend:
[1] = molecular target: T1, MIF-CD74 Binding (biotin-labeled recombinant human MIF, recombinant human MIF receptor CD74 ectodomain) (Homo sapiens, UniProt P14174); test: MIF-CD74 binding (capture) assay; design: concentration of C74 % MaxInhib (number after @): unit not given here; details: for CD74 % MaxInhib / C74 % MaxInhib: number before @; for % Bound: Table 19; for Capture % Max. Inhib.: Table 3
T1 sequence (P14174 2-115 limits assumed): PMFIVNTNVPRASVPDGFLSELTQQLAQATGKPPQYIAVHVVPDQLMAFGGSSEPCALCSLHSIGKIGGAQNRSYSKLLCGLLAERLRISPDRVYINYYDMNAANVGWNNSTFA

[2] = molecular target: T2, Human MIF (MIF tautomerase activity) (Homo sapiens, UniProt P14174); test: HPP tautomerase assay; assay type: biochemical; details: for IC50: read-out: HPP IC50; for concentration of HPP % MaxInhib (number after @): Table 7
T2 construct: made in house
T2 sequence (P14174 2-115 limits assumed): T1 sequence (P14174 2-115 limits assumed)
Method: The HPP assay used was adapted to the microtiter plate format. […] Dilutions of the enzyme were prepared in 50 mM sodium phosphate buffer, 1 mM EDTA, pH 6.5. HPP was obtained from Aldrich. A stock solution of 60 mM HPP in ethanol is prepared and kept for maximally 4 hours on ice. The working solution (600 μM) of the substrate was prepared by diluting an aliquot of the stock solution with 50 mM sodium phosphate buffer, 1 mM EDTA, pH 6.5. […] Inhibitor and enzyme solutions were pipetted manually using an Eppendorf 12-channel pipette. Addition of substrate to start the reaction was performed with an Igel 96 pipetting station (OpalJena, Jena, Germany), which allows simultaneous addition of fluid to all 96 wells of the plates. Optical density (OD) was determined using a SPECTRAmax 250 reader (Molecular Devices). The reader was operated with the SoftmaxPro 2.6.1 software. Assay: Three wells of the microtiter plates were filled with buffer only, to allow for blanking. […] The last step was performed using the 96-channel pipetting device. The plate was then immediately (i.e. within a few seconds) transferred manually to the SPECTRAmax 250 reader and the optical density was determined (310 nm). From the data obtained, IC50 values were calculated using Excel® and XLfit® software.

[3] = Table 13, data cell c5, number before @
[4] = Table 7, data cell c6, number before @
[5] = Table 2, read-out: MIF-CD74 IC50
[6] = Table 19, data cell c5, read-out: CD74 IC50

`Cc1ccc2c(c1)oc(=O)n2Cc1ccccc1` [Compound 2, 3-benzyl-6-methyl-3H-benzooxazol-2-one] was tested, and the “concentration of CD74 % MaxInhib (number after @)” value (“concentration of CD74 % MaxInhib” below) ([1]; Table 4) was 1.87 µM, the “CD74 % MaxInhib” value ([1]; Table 4) was 25% and the IC50 ([2]; Table 1) was 3.4 µM.
`Cc1ccc2cc(C(=O)c3cc4ccccc4o3)oc2c1` [MIF-077] was tested, and the “concentration of CD74 % MaxInhib” value ([1]; Table 13) was 0.24 µM, the “CD74 % MaxInhib” value ([1]; Table 13) was 16% and the “concentration of HPP Max Inhib (number after @)” value (from here on “concentration of HPP Max Inhib”) ([2]; Table 13) was 1000 µM. The “HPP Max Inhib” value [2, 3] was 30%.
`Cc1ccc2oc(-c3ccc(Cl)cc3)nc2c1` [MIF-124] was tested, and the “concentration of CD74 % MaxInhib” value ([1]; Table 7) was 0.078 µM, the “CD74 % MaxInhib” value ([1]; Table 7, data cell c7) was 11% and the “concentration of HPP % MaxInhib (number after @)” value [2] was 1000 µM. The “HPP % MaxInhib” value [2, 4] was 29%.
With `O=C1c2cc(F)ccc2CN1c1ccc(Cl)cc1` [MIF-125] the “concentration of CD74 % MaxInhib” value ([1]; Table 9) was 0.12 µM, the “CD74 % MaxInhib” value ([1]; Table 9) was 19% and the “HPP % MaxInhib” value ([2]; Table 9, number before @) was 45%.
With `c1ccc(COc2ccc3cc(-c4cc[nH]c4)[nH]c3c2)cc1` [Compound 24] the IC50 [1, 5] was 5000 µM, the IC50 ([1]; Table 5, read-out: CD74 IC50) was 5000 µM and the IC50 ([1]; Table 22, read-out: CD74 IC50) was 5000 µM.
With `N#Cc1nc2ccccc2n1Cc1ccccc1` [Compound 18, 1-Benzyl-1H-benzoimidazole-2-carbonitrile] the “concentration of CD74 % MaxInhib” value ([1]; Table 5) was 0.078 µM.
`Fc1ccc2[nH]c(-c3ccc(Cl)cc3)cc2c1` [MIF-128] was tested, and the “concentration of CD74 % MaxInhib” value ([1]; Table 10) was 0.0039 µM, the “CD74 % MaxInhib” value ([1]; Table 10) was 20% and the IC50 ([2]; Table 10) was 280 µM.
In the case of `COc1ccc(Cc2cn(-c3ccc(O)cc3)nn2)cc1` [MIF-086], the “concentration of C74 % MaxInhib (number after @)” value (“concentration of C74 % MaxInhib” for short) ([1]; Table 18) is reported as 0.078, the “C74 % MaxInhib” value ([1]; Table 18) is reported as 36% and the IC50 ([2]; Table 18) is reported as 65 µM.
For `Fc1ccc2cc(-c3ccc(Cl)cc3)[nH]c2c1` [MIF-127], the “concentration of CD74 % MaxInhib” value ([1]; Table 10) was 0.34 µM, the “CD74 % MaxInhib” value ([1]; Table 10) was 22% and the IC50 ([2]; Table 10) was 240 µM.
With `O=C(c1cc2ccccc2o1)c1cc2ccccc2o1` [Compound 20, bisbenzofuran-2-yl methanone] the “concentration of CD74 % MaxInhib” value ([1]; Table 13) was 0.058 µM.
`O=C(c1cc2ccccc2o1)N1CCc2ccccc21` [Compound 21] gave an IC50 [1, 5] of 4 µM, an IC50 ([1]; Table 5, read-out: CD74 IC50) of 4 µM and an IC50 ([1]; Table 14, read-out: CD74 IC50) of 4 µM. It also gave an IC50 ([2]; Table 5) of 3 µM.
`COc1cccc(-n2sc3ccc(F)cc3c2=O)c1` [MIF-144] gave an IC50 ([2]; Table 6, data cell c7) of 2.75 µM.
`O=c1c2cc(F)ccc2sn1-c1ccc(Cl)cc1` [MIF-141] was tested, and the “CD74 IC50” value ([1]; Table 6, data cell c9) was “agonist” and the IC50 ([2]; Table 6, data cell c7) was 5.6 µM.
For `Oc1ccc(Cc2cn(-c3ccc(O)cc3)nn2)cc1` [MIF-087], the “concentration of C74 % MaxInhib” value ([1]; Table 18) was 0.078, the “C74 % MaxInhib” value ([1]; Table 18) was 23% and the IC50 ([2]; Table 18) was 690 µM.
With `CN(C)C(=O)c1nc2ccccc2n1Cc1ccccc1` [MIF-063] the “concentration of CD74 % MaxInhib” value ([1]; Table 5) was 1.87 µM, the “CD74 % MaxInhib” value ([1]; Table 5) was 27% and the “HPP Max Inhib” value ([2]; Table 5) was 0%.
In the case of `Cc1ccc2cc(C(=O)N3CCc4ccccc43)oc2c1` [MIF-082], the “concentration of CD74 % MaxInhib” value ([1]; Table 14) is reported as 0.24 µM and the “CD74 % MaxInhib” value ([1]; Table 14) is reported as 19%.
Compound `Oc1ccc(-c2cn(-c3cncc4ccccc34)nn2)cc1` [MIF-008] has an IC50 ([2]; Table 20) of 32 µM.
`Cc1ccc2nc(-c3ccc(Cl)cc3)oc2c1` [MIF-123] was tested, and the “concentration of CD74 % MaxInhib” value ([1]; Table 7) was 3.76 µM, the “CD74 % MaxInhib” value ([1]; Table 7, data cell c7) was 26% and the “concentration of HPP % MaxInhib (number after @)” value [2] was 50 µM. The “HPP % MaxInhib” value [2, 4] was 14%.
In the case of `O=C(O)c1cccc(Cn2cc(-c3ccc(O)cc3)nn2)c1` [MIF-037], the “% Bound” value [1] is reported as 70-90%.
With `COc1ccc(-n2sc3ccc(F)cc3c2=O)cc1` [MIF-142] the “CD74 IC50” value ([1]; Table 6, data cell c9) was “agonist” and the IC50 ([2]; Table 6, data cell c7) was 6.5 µM.
With `COc1ccc2oc(C(=O)N3CCc4ccccc43)cc2c1` [MIF-088] the “concentration of CD74 % MaxInhib” value ([1]; Table 14) was 0.24 µM, the “CD74 % MaxInhib” value ([1]; Table 14) was 30% and the “concentration of HPP Max Inhib” value ([2]; Table 14) was 5 µM. The “HPP Max Inhib” value ([2]; Table 14, number before @) was 23%.
In the case of `Cc1ccc2oc(C(=O)c3cc4ccccc4o3)cc2c1` [MIF-078], the “concentration of HPP Max Inhib” value ([2]; Table 13) is reported as 700 µM and the “HPP Max Inhib” value [2, 3] is reported as 47%.
With `O=c1c2cc(F)ccc2sn1-c1cccc(O)c1` [Compound 32] the “Capture % Max. Inhib.” value [1] was 13%, the “CD74 % MaxInhib” value ([1]; Table 6, data cell c8) was 13% and the IC50 ([2]; Table 3) was 5.9 µM. For the same compound, the IC50 ([2]; Table 6, data cell c7) was 5.9 µM.
`CC(=O)OCc1cccc(-n2sc3cc(F)ccc3c2=O)c1` [Compound 33] was tested, and the “Capture % Max. Inhib.” value [1] was 12%, the “CD74 % MaxInhib” value ([1]; Table 6, data cell c8) was 12% and the IC50 ([2]; Table 3) was 2.3 µM. It also gave an IC50 ([2]; Table 6, data cell c7) of 2.3 µM.
In the case of `O=C(O)COc1ccc2occ(C(=O)c3ccccc3)c2c1` [Compound 23], the IC50 [1, 5] is reported as 1500 µM, the IC50 ([1]; Table 5, read-out: CD74 IC50) is reported as 1500 µM and the IC50 ([1]; Table 16, read-out: CD74 IC50) is reported as 1500 µM.
With `O=C(c1cc2cc(F)ccc2o1)N1CCc2ccccc21` [MIF-089] the “concentration of CD74 % MaxInhib” value ([1]; Table 14) was 0.12 µM, the “CD74 % MaxInhib” value ([1]; Table 14) was 30% and the “concentration of HPP Max Inhib” value ([2]; Table 14) was 1 µM. The “HPP Max Inhib” value ([2]; Table 14, number before @) was 19%.
`NC(=O)c1nc2ccccc2n1Cc1ccccc1` [MIF-062] was tested, and the “concentration of CD74 % MaxInhib” value ([1]; Table 5) was 1.87 µM, the “CD74 % MaxInhib” value ([1]; Table 5) was 25% and the “HPP Max Inhib” value ([2]; Table 5) was 16%.
For `Oc1ccc(-n2cc(Cc3ccccc3O)nn2)cc1` [MIF-071], the “concentration of C74 % MaxInhib” value ([1]; Table 18) was 0.24, the “C74 % MaxInhib” value ([1]; Table 18) was 9% and the IC50 ([2]; Table 18) was 1000 µM.
`Cc1cccc(Cn2cc(-c3ccc(O)cc3)nn2)c1` [MIF-031] was tested, and the “% Bound” value [1] was 100%.
`COc1ccccc1Cc1cn(-c2ccc(O)cc2)nn1` [MIF-070] was tested, and the “concentration of C74 % MaxInhib” value ([1]; Table 18) was 0.0078, the “C74 % MaxInhib” value ([1]; Table 18) was 14% and the “concentration of HPP Max Inhib” value ([2]; Table 18) was 1000. The “HPP Max Inhib” value ([2]; Table 18, number before @) was 35%.
With `c1ccc(-c2nc3ccccc3s2)cc1` [MIF-137] the “concentration of CD74 % MaxInhib” value ([1]; Table 8) was 0.078 µM and the “HPP IC50” value ([2]; Table 8) was “agonist”.
`Fc1ccc2cn(-c3ccc(Cl)cc3)nc2c1` [MIF-131] was tested, and the “concentration of CD74 % MaxInhib” value ([1]; Table 11) was 0.12 µM, the “CD74 % MaxInhib” value ([1]; Table 11) was 29% and the “HPP % MaxInhib” value ([2]; Table 11, number before @) was 30%.
For `COc1cccc(Cc2cn(-c3ccc(O)cc3)nn2)c1OC` [MIF-084], the IC50 ([2]; Table 18) was 530 µM.
`O=c1c2ccc(F)cc2sn1-c1ccc(Cl)cc1` [Compound 25] was tested, and the “activity in the capture assay” value [1] was “agonist behavior”, the “MIF-CD74 IC50” value ([1]; Table 2) was “agonist” and the “CD74 IC50” value ([1]; Table 5) was “agonist”. For the same compound, the IC50 ([2]; Table 2) was 4.2 µM.
Compound `Oc1ccc(-c2cn(-c3cccnc3)nn2)cc1` [MIF-007] has an IC50 ([2]; Table 20) of 970 µM.
For `O=c1c2ccc(F)cc2sn1-c1cccc(CO)c1` [Compound 29], the “Capture % Max. Inhib.” value [1] was 8% and the “CD74 % MaxInhib” value ([1]; Table 6, data cell c8) was 8%.
With `Oc1ccc(-n2cc(Cc3ccccc3)nn2)cc1` [MIF-003] the IC50 ([1]; Table 18, read-out: CD74 IC50) was 3.5 µM.
`COc1ccc(Cn2cc(-c3ccc(O)cc3)nn2)cc1` [MIF-004] was tested, and the “% Bound” value [1] was 94%.
For `COc1ccc(-n2sc3cc(F)ccc3c2=O)cc1` [Compound 27], the IC50 ([2]; Table 3) was 6.2 µM.
`Cc1ccccc1Cn1cc(-c2ccc(O)cc2)nn1` [MIF-032] was tested, and the “% Bound” value [1] was 100%.
For `COc1cccc(Cn2cc(-c3ccc(O)cc3)nn2)c1` [MIF-005], the “% Bound” value [1] was 67% and the IC50 [1, 6] was 100 µM.
With `Oc1ccc(-c2cn(Cc3ccccc3)nn2)cc1` [MIF-002] the “% Bound” value [1] was 96% and the IC50 [1, 6] was 6000 µM.
In the case of `O=c1c2cc(F)ccc2sn1-c1ccc(Cl)cc1` [Compound 30], the “Capture % Max. Inhib.” value [1] is reported as 7% and the “CD74 % MaxInhib” value ([1]; Table 6, data cell c8) is reported as 7%.
`COCc1cccc(-n2sc3cc(F)ccc3c2=O)c1` [MIF-136] gave an IC50 ([2]; Table 6, data cell c7) of 2.4 µM.
In the case of `O=c1c2cc(C(F)(F)F)ccc2sn1-c1ccc(Cl)cc1` [Compound 35], the “Capture % Max. Inhib.” value [1] is reported as 12% and the “CD74 % MaxInhib” value ([1]; Table 6, data cell c8) is reported as 12%.
`O=c1c2cc(Br)ccc2sn1-c1ccc(Cl)cc1` [Compound 39] was tested, and the IC50 ([2]; Table 3) was 7.9 µM and the IC50 ([2]; Table 6, data cell c7) was 7.9 µM.
Compound `O=Cc1cccc(-n2sc3cc(F)ccc3c2=O)c1` [MIF-135] has an IC50 ([2]; Table 6, data cell c7) of 6 µM.
`Oc1ccc2c(c1)oc1ccccc12` [MIF-039] was tested, and the IC50 ([1]; Table 17, read-out: CD74 IC50) was 900 µM.
`Oc1ccc(-c2cn(Cc3ccccn3)nn2)cc1` [MIF-035] was tested, and the IC50 ([1]; Table 20, read-out: CD74 IC50) was 300 µM.
`COc1cccc(-n2sc3cc(F)ccc3c2=O)c1` [Compound 28] showed an IC50 ([2]; Table 3) of 25 µM and an IC50 ([2]; Table 6, data cell c7) of 25 µM.
With `COc1ccccc1Cn1c(=O)oc2ccc(F)cc21` [Compound 10] the “concentration of CD74 % MaxInhib” value ([1]; Table 4) was 0.039 µM.
